Laboratory results from ChEMBL document CHEMBL5131484, “Design and synthesis of adamantane-1-carbonyl thiourea derivatives as potent and selective inhibitors of h-P2X4 and h-P2X7 receptors: An Emerging therapeutic tool for treatment of inflammation and neurological disorders” (Eur J Med Chem, 2022).

Columns and labels:
[1] = Cytotoxicity against human 1321N1 cells assessed as reduction in cell viability at 50 uM incubated for 24 hrs by MTT assay relative to control; format: functional
[2] = Cytotoxicity against human HEK293 cells assessed as reduction in cell viability at 50 uM incubated for 24 hrs by MTT assay relative to control; format: toxicity, cell-based; conditions: read-out: INH
HeLa = assay: Cytotoxicity against human HeLa cells assessed as reduction in cell viability at 50 uM incubated for 24 hrs by MTT assay relative to control; format: functional
[3] = target: T1, P2X purinoceptor 4 (Homo sapiens) (UniProt Q99571); assay: Negative allosteric modulation activity at human P2X4 receptor expressed in human 1321N1 cells assessed as ATP induced calcium response by measuring maximal ATP efficacy at 40 nM relative to control; format: cell-based; conditions: filed as negative allosteric modulator
T1 sequence (whole entry): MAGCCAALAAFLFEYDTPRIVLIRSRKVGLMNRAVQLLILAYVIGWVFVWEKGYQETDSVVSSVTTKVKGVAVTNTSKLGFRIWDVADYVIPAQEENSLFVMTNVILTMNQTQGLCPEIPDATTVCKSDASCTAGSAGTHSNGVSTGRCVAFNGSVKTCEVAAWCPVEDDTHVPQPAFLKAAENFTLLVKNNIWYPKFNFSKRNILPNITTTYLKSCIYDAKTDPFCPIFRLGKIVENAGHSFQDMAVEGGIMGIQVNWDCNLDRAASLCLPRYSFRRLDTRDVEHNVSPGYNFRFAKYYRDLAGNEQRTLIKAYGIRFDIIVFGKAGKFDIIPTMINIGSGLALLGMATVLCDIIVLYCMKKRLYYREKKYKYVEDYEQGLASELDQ

[4] = target: T1, P2X purinoceptor 4 (Homo sapiens); assay: Negative allosteric modulation activity at human P2X4 receptor expressed in human 1321N1 cells assessed as ATP induced calcium response by measuring maximal ATP efficacy at 100 nM relative to control; format: cell-based; conditions: filed as negative allosteric modulator
[5] = target: T1, P2X purinoceptor 4 (Homo sapiens); assay: Negative allosteric modulation activity at human P2X4 receptor expressed in human 1321N1 cells assessed as ATP induced calcium response by measuring maximal ATP efficacy at 200 nM relative to control; format: cell-based
[6] = target: T2, P2X purinoceptor 2 (Homo sapiens) (UniProt Q9UBL9); assay: Negative allosteric modulation activity at human P2X2 receptor expressed in human 1321N1 cells assessed as reduction in intracellular Ca2+ influx incubated for 30 mins by Fura-2 AM based fluorescence assay relative to control; format: cell-based
T2 sequence (whole entry): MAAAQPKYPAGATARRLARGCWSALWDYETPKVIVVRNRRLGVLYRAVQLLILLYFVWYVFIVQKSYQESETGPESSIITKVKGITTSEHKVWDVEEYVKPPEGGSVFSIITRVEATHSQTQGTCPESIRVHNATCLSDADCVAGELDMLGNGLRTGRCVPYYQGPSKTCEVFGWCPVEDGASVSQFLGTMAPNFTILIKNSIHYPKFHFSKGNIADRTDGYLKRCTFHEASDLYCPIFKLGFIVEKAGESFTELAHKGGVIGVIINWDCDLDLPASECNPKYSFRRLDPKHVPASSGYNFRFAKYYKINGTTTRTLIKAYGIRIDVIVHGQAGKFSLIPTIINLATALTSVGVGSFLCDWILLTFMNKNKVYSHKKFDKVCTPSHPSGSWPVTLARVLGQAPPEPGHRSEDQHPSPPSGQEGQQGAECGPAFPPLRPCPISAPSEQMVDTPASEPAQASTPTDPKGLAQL

P2X purinoceptor 5 = P2X purinoceptor 5 (Homo sapiens, UniProt Q93086); assay: Negative allosteric modulation activity at human P2X5 receptor expressed in human 1321N1 cells assessed as reduction in intracellular Ca2+ influx incubated for 30 mins by Fura-2 AM based fluorescence assay relative to control; format: cell-based
P2X purinoceptor 7 = target: T3, P2X purinoceptor 7 (Homo sapiens, UniProt Q99572); assay: Negative allosteric modulation activity at human P2X7 receptor expressed in human 1321N1 cells assessed as reduction in intracellular Ca2+ influx incubated for 30 mins by Fura-2 AM based fluorescence assay; format: cell-based
T3 sequence (Q99572 whole entry): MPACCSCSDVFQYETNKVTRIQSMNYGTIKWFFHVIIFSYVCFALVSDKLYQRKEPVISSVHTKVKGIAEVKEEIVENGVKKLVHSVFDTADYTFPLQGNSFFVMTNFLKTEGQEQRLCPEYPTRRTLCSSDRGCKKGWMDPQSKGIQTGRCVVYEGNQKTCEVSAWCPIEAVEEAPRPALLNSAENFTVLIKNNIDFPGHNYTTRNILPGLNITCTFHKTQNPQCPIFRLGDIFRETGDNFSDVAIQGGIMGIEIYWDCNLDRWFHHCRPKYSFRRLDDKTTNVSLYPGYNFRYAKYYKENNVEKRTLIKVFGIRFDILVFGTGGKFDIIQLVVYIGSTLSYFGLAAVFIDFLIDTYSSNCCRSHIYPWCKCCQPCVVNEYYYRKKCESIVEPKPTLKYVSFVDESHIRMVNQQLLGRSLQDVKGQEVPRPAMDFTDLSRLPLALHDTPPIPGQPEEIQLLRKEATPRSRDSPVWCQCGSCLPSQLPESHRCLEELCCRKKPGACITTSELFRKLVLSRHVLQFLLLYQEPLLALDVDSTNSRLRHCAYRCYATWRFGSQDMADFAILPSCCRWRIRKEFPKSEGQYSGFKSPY

Sequence of P2X purinoceptor 5 (Q93086 whole entry): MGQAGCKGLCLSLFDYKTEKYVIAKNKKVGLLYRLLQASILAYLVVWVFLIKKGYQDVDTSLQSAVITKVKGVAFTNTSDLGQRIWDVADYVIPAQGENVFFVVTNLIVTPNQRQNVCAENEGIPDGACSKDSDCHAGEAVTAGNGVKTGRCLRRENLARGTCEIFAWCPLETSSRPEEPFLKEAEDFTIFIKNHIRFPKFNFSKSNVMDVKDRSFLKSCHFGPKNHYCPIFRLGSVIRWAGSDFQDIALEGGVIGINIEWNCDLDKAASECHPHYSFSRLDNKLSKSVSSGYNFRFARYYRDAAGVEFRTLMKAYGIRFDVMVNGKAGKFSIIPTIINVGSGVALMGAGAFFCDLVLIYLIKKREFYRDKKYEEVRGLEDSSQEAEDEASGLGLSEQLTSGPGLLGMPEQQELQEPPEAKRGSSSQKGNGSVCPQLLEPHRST

What does the source list for `CC(C)c1ccc(NC(=S)NC(=O)C23CC4CC(CC(C4)C2)C3)c(Br)c1`?
inhibition at 50 µM [1]: 9.26%; cytotoxicity at 24 h, 50 µM [2]: 4.28%; inhibition at 50 µM (HeLa): 6.54%; Emax [3]: 68%; Emax [4]: 45%; Emax [5]: 32%; inhibition [6]: 30%; inhibition (P2X purinoceptor 5): 12%; IC50 (P2X purinoceptor 7): 25.2 µM
